Target: T1, nnLuz (Neonothopanus nambi, UniProt A0A3G9JYH7, I3S/N4T/F11L/I63T/T99P/T192S/A199P)
T1 construct: gene luz; HiBiT-tag fusion, expressed in yeast Pichia pastoris GS115, clarified lysate; codon-optimized synthetic gene
Assay: luminescence, Michaelis-Menten fit, HiBiT-normalized
Format: biochemical
Conditions: yeast lysate; 0.2 M sodium phosphate, 0.5 M Na2SO4, pH 8; Fln 0.0244-50 uM; DDM, thioglycolic acid; variant nnLuz_v4

T1 sequence (A0A3G9JYH7 whole entry I3S/N4T/F11L/I63T/T99P/T192S/A199P, the tested form may be a part): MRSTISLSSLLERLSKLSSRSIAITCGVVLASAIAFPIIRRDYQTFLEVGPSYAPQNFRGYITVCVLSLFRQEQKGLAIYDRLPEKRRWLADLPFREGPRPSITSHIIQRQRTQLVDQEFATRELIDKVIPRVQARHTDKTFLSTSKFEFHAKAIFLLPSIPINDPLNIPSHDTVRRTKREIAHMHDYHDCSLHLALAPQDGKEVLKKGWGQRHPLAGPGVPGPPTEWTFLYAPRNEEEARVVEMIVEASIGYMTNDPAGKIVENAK

`O=c1oc(/C=C/c2ccc(O)c(O)c2)cc(O)c1O` [Fln, fungal luciferin] was tested, and the KM was “Yeast strains expressing nnLuz_wt/v4–HiBIT fusions were inoculated into YPD medium”.
